Experimental data taken from publication doi:10.1101/2025.02.01.636040v1 (bioRxiv, 2025).

Columns and labels:
CHIKVP [1] = target: T1, CHIKVP (Chikungunya virus, UniProt Q8JUX6); conditions: 500 μM peptide, 5 μM CHIKVP, 1 hour, LC-MS extracted ion chromatograms
CHIKVP [2] = target: T1, CHIKVP; conditions: 500 µM of each peptide mixed, 5 µM CHIKVP, 10 minutes, LC-MS/UV peak area
CHIKVP [3] = target: T1, CHIKVP; conditions: 300 µM CHIKVP, 1.5 mM peptide, 10 min, 298 K, 75 mM deuterated Tris pH 7.5

T1 sequence (Q8JUX6 1004-1327 limits assumed): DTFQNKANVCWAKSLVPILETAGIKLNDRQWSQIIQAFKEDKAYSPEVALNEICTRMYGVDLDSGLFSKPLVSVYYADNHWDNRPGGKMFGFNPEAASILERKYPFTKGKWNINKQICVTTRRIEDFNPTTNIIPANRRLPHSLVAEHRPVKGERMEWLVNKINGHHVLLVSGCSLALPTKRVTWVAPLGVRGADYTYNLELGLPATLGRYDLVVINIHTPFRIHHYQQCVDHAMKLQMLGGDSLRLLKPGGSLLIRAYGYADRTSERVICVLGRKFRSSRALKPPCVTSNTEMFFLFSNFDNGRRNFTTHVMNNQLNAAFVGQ

Row | Substance | cleavage by CHIKVP by LC-MS (CHIKVP [1]) | decrease in peak area (CHIKVP [2]) [%] | binding to CHIKVP from 1H-NMR line broadening (CHIKVP [3])
1 | DELRLDRAGG/YIFSS | effectively cleaved | 54.1 | more potent binder of CHIKVP
2 | VEQLEDRAGA/GIIGGSRR | effectively cleaved | 52.7 | –
